Data from patent US9738634B2, “Heterocyclic amide compound and herbicide” (SYNGENTA PARTICIPATIONS AG, priority 2013, dated 2017).

Key:
Type in all cases: in vivo
bulrush [1] = assay: Test Example 2: weedkilling efficacy, growth period weed treatment in the submerged state; B: bulrush; conditions: treatment dosage 252 g/ha
Method in brief: (§1)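 Weeds treated at the 1-2 leaf stage by application of diluted emulsion onto floodwater (4 cm depth, alluvial soil) at specified g/ha. Grown in greenhouse at 25 to 30° C; herbicidal effect rated three weeks after treatment.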

directly sown rice = assay: Test Example 3: soil treatment, effect on crop; b: directly sown rice; conditions: soil treatment, treatment dosage 315 g/ha
Method in brief: (§2)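 Crop and weed responses were judged three weeks after a uniform surface spray of the water-diluted emulsion at the given g/ha rate. Seeds sat beneath about 1.5 cm of sterilized diluvial soil, and boxes stood in a greenhouse at 25 to 30° C.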

oval-leafed pondweed [2] = assay: Test Example 1: weedkilling efficacy, preemergent weed treatment in the submerged state; C: oval-leafed pondweed; conditions: treatment dosage 252 g/ha
Method in brief: (§3)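 Pre-emergence application onto floodwater (4 cm, alluvial soil) on the day of sowing, dose expressed as g/ha from diluted emulsion formulation. Weeds sown with 2.5-leaf transplanted rice as crop; plants held at 25–30 °C in greenhouse and scored against assessment criteria after 3 weeks.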

Indian mallow = assay: Test Example 3: weedkilling efficacy through soil treatment; K: Indian mallow; conditions: soil treatment, treatment dosage 315 g/ha
Method in brief: as §2

transplanted rice = assay: Test Example 1: preemergent weed treatment in the submerged state, effect on crop; a: transplanted rice; conditions: treatment dosage 252 g/ha
Method in brief: as §3

oval-leafed pondweed [3] = assay: Test Example 2: weedkilling efficacy, growth period weed treatment in the submerged state; C: oval-leafed pondweed; conditions: treatment dosage 252 g/ha
Method in brief: as §1

wild oat = assay: Test Example 3: weedkilling efficacy through soil treatment; G: wild oat; conditions: soil treatment, treatment dosage 315 g/ha
Method in brief: as §2

corn = assay: Test Example 3: soil treatment, effect on crop; c: corn; conditions: soil treatment, treatment dosage 315 g/ha
Method in brief: as §2

beet = assay: Test Example 3: soil treatment, effect on crop; f: beet; conditions: soil treatment, treatment dosage 315 g/ha
Method in brief: as §2

bulrush [4] = assay: Test Example 1: weedkilling efficacy, preemergent weed treatment in the submerged state; B: bulrush; conditions: treatment dosage 252 g/ha
Method in brief: as §3

catchweed = assay: Test Example 3: weedkilling efficacy through soil treatment; O: catchweed; conditions: soil treatment, treatment dosage 315 g/ha
Text: (§4) Weedkilling Efficacy Test Through Soil Treatment
(§5) Sterilized diluvial soil was introduced into 21 cm long, 13 cm wide, 7 cm deep plastic boxes, and seeds of crabgrass, green foxtail, barnyard grass, wild oat, black-grass, Italian ryegrass, common wind-grass, Indian mallow, redroot pigweed, fig-leafed goosefoot, chickweed, catchweed, birds-eye speedwell, corn, soybean, rice, wheat, beet and rapeseed were each spot-sown, and covered with about 1.5 cm of soil. Next, emulsions of compounds of the present invention prepared according to compounding example 2 were diluted with water to give the specified dosages, and applied uniformly onto the soil surface with a small sprayer. The plants were grown by placing the plastic boxes in a greenhouse at 25 to 30° C., and 3 weeks after the pesticide treatment the effect on each type of plant was investigated on the basis of the assessment criteria of test example 1.
(§6) A: barnyard grass, B: bulrush, C: oval-leafed pondweed, D: crabgrass, E: green foxtail, F: barnyard grass, G: wild oat, H: black-grass, I: Italian ryegrass, J: common wind-grass, K: Indian mallow, L: redroot pigweed, M: fig-leafed goosefoot, N: chickweed, O: catchweed, p: birds-eye speedwell, a: transplanted rice, b: directly sown rice, c: corn, d: soybean, e: wheat, f: beet, g: rapeseed
(§7) Further, pesticide dosage (g/ha) indicates the concentration regulated such that treatment was with only the stated number of grams (g), when calculated per hectare (ha).

chickweed = assay: Test Example 3: weedkilling efficacy through soil treatment; N: chickweed; conditions: soil treatment, treatment dosage 315 g/ha
Method in brief: as §2

green foxtail = assay: Test Example 3: weedkilling efficacy through soil treatment; E: green foxtail; conditions: soil treatment, treatment dosage 315 g/ha
Method in brief: as §2

birds-eye speedwell = assay: Test Example 3: weedkilling efficacy through soil treatment; p: birds-eye speedwell; conditions: soil treatment, treatment dosage 315 g/ha
Text: as §4, §5, §6, §7

redroot pigweed = assay: Test Example 3: weedkilling efficacy through soil treatment; L: redroot pigweed; conditions: soil treatment, treatment dosage 315 g/ha
Method in brief: as §2

Italian ryegrass = assay: Test Example 3: weedkilling efficacy through soil treatment; I: Italian ryegrass; conditions: soil treatment, treatment dosage 315 g/ha
Method in brief: as §2

wheat = assay: Test Example 3: soil treatment, effect on crop; e: wheat; conditions: soil treatment, treatment dosage 315 g/ha
Method in brief: as §2

barnyard grass [5] = assay: Test Example 2: weedkilling efficacy, growth period weed treatment in the submerged state; A: barnyard grass; conditions: treatment dosage 252 g/ha
Method in brief: as §1

soybean = assay: Test Example 3: soil treatment, effect on crop; d: soybean; conditions: soil treatment, treatment dosage 315 g/ha
Method in brief: as §2

fig-leafed goosefoot = assay: Test Example 3: weedkilling efficacy through soil treatment; M: fig-leafed goosefoot; conditions: soil treatment, treatment dosage 315 g/ha
Method in brief: as §2

crabgrass = assay: Test Example 3: weedkilling efficacy through soil treatment; D: crabgrass; conditions: soil treatment, treatment dosage 315 g/ha
Method in brief: as §2

barnyard grass [6] = assay: Test Example 1: weedkilling efficacy, preemergent weed treatment in the submerged state; A: barnyard grass; conditions: treatment dosage 252 g/ha
Method in brief: as §3

black-grass = assay: Test Example 3: weedkilling efficacy through soil treatment; H: black-grass; conditions: soil treatment, treatment dosage 315 g/ha
Method in brief: as §2

Structure (SMILES)	B (bulrush) weedkilling efficacy grade (bulrush [1])	b: directly sown rice, effect on crop grade (directly sown rice)	C: oval-leafed pondweed, weed kill grade (oval-leafed pondweed [2])	K: Indian mallow, weedkilling efficacy grade (Indian mallow)	a: transplanted rice, effect on crop grade (transplanted rice)	C (oval-leafed pondweed) weedkilling efficacy grade (oval-leafed pondweed [3])	G: wild oat, weedkilling efficacy grade (wild oat)	c: corn, effect on crop grade (corn)	f: beet, effect on crop grade (beet)	B: bulrush, weed kill grade (bulrush [4])	N: chickweed, weedkilling efficacy grade (chickweed)	E: green foxtail, weedkilling efficacy grade (green foxtail)	P: birds-eye speedwell, weedkilling efficacy grade (birds-eye speedwell)	L: redroot pigweed, weedkilling efficacy grade (redroot pigweed)	I: Italian ryegrass, weedkilling efficacy grade (Italian ryegrass)	e: wheat, effect on crop grade (wheat)	A (barnyard grass) weedkilling efficacy grade (barnyard grass [5])	d: soybean, effect on crop grade (soybean)	M: fig-leafed goosefoot, weedkilling efficacy grade (fig-leafed goosefoot)	D: crabgrass, weedkilling efficacy grade (crabgrass)	also measured
CC(C)(C(=O)Nc1cc(F)ccn1)N1COCN(c2ccccc2)C1=O [A-2-03]	5 (weed kill ratio 90% or more, (practically complete withering))	5 (weed kill ratio 90% or more, (practically complete withering))	5 (weed kill ratio 90% or more, (practically complete withering))	0 (weed kill ratio 5% or less (practically no effect))	1 (weed kill ratio 5% or more, less than 20%)	3 (weed kill ratio 40% or more, less than 70%)	5 (weed kill ratio 90% or more, (practically complete withering))	3 (weed kill ratio 40% or more, less than 70%)	0 (weed kill ratio 5% or less (practically no effect))	5 (weed kill ratio 90% or more, (practically complete withering))	4 (weed kill ratio 70% or more, less than 90%)	5 (weed kill ratio 90% or more, (practically complete withering))	5 (weed kill ratio 90% or more, (practically complete withering))	4 (weed kill ratio 70% or more, less than 90%)	5 (weed kill ratio 90% or more, (practically complete withering))	2 (weed kill ratio 20% or more, less than 40%)	5 (weed kill ratio 90% or more, (practically complete withering))	0 (weed kill ratio 5% or less (practically no effect))	4 (weed kill ratio 70% or more, less than 90%)	5 (weed kill ratio 90% or more, (practically complete withering))	O: catchweed, weedkilling efficacy grade (catchweed): 5 (weed kill ratio 90% or more, (practically complete withering)); A: barnyard grass, weed kill grade (barnyard grass [6]): 5 (weed kill ratio 90% or more, (practically complete withering)); H: black-grass, weedkilling efficacy grade (black-grass): 5 (weed kill ratio 90% or more, (practically complete withering))
CC(C)(C(=O)Nc1cccc(I)n1)N1COCN(c2ccccc2)C1=O [A-2-11]	5 (weed kill ratio 90% or more, (practically complete withering))	3 (weed kill ratio 40% or more, less than 70%)	5 (weed kill ratio 90% or more, (practically complete withering))	0 (weed kill ratio 5% or less (practically no effect))	0 (weed kill ratio 5% or less (practically no effect))	3 (weed kill ratio 40% or more, less than 70%)	2 (weed kill ratio 20% or more, less than 40%)	0 (weed kill ratio 5% or less (practically no effect))	2 (weed kill ratio 20% or more, less than 40%)	5 (weed kill ratio 90% or more, (practically complete withering))	4 (weed kill ratio 70% or more, less than 90%)	5 (weed kill ratio 90% or more, (practically complete withering))	4 (weed kill ratio 70% or more, less than 90%)	0 (weed kill ratio 5% or less (practically no effect))	5 (weed kill ratio 90% or more, (practically complete withering))	1 (weed kill ratio 5% or more, less than 20%)	4 (weed kill ratio 70% or more, less than 90%)	0 (weed kill ratio 5% or less (practically no effect))	3 (weed kill ratio 40% or more, less than 70%)	5 (weed kill ratio 90% or more, (practically complete withering))	O: catchweed, weedkilling efficacy grade (catchweed): 2 (weed kill ratio 20% or more, less than 40%); A: barnyard grass, weed kill grade (barnyard grass [6]): 5 (weed kill ratio 90% or more, (practically complete withering)); H: black-grass, weedkilling efficacy grade (black-grass): 5 (weed kill ratio 90% or more, (practically complete withering))
CC(C)(C(=O)Nc1cc(Cl)ccn1)N1COCN(c2ccccc2)C1=O [A-2-06]	5 (weed kill ratio 90% or more, (practically complete withering))	5 (weed kill ratio 90% or more, (practically complete withering))	5 (weed kill ratio 90% or more, (practically complete withering))	4 (weed kill ratio 70% or more, less than 90%)	4 (weed kill ratio 70% or more, less than 90%)	5 (weed kill ratio 90% or more, (practically complete withering))	5 (weed kill ratio 90% or more, (practically complete withering))	3 (weed kill ratio 40% or more, less than 70%)	4 (weed kill ratio 70% or more, less than 90%)	5 (weed kill ratio 90% or more, (practically complete withering))	4 (weed kill ratio 70% or more, less than 90%)	5 (weed kill ratio 90% or more, (practically complete withering))	5 (weed kill ratio 90% or more, (practically complete withering))	5 (weed kill ratio 90% or more, (practically complete withering))	5 (weed kill ratio 90% or more, (practically complete withering))	1 (weed kill ratio 5% or more, less than 20%)	5 (weed kill ratio 90% or more, (practically complete withering))	3 (weed kill ratio 40% or more, less than 70%)	4 (weed kill ratio 70% or more, less than 90%)	5 (weed kill ratio 90% or more, (practically complete withering))	A: barnyard grass, weed kill grade (barnyard grass [6]): 5 (weed kill ratio 90% or more, (practically complete withering)); H: black-grass, weedkilling efficacy grade (black-grass): 5 (weed kill ratio 90% or more, (practically complete withering))
